Experimental findings from ChEMBL document CHEMBL6096644, “Synthesis and structure-affinity relationships of spirocyclic σ1 receptor ligands with tetrahydropyran scaffold” (Eur J Med Chem, 2025) are described below.

The nature of one data set: physchem. Conditions: n-octanol/MOPS aqueous buffer, pH 7.4.
Data set [1] can be described thus: in vitro. As to conditions: human, human serum.
Description: Plasma protein binding in human serum by HPAC analysis
A short description of data set [2]: in vitro. Conditions: mouse, liver microsomes. For orientation: Liver microsomes are vesicles of endoplasmic reticulum, rich in cytochrome P450 enzymes.
Description: Metabolic stability in mouse liver microsomes assessed as parent compound remaining measured after 90 mins in presence of NADPH/H+ by HPLC analysis

Description for physchem: Distribution coefficient, logD of compound in n-Octanol/MOPS aqueous buffer at pH 7.4 by shake-flask method based mass spectrometry analysis

Turning to `c1cc2c(cc1C1CCOC3(CCN(CC4CCCC4)CC3)C1)CCO2` (stereo not given), the logD (commonly the decadic logarithm of the distribution of all forms, ionised or not, between an organic phase and buffer at a given pH) in the data set “physchem” was determined as 2.34.
As for `Oc1cccc(CN2CCC3(CC2)CC(CCc2ccccc2)CCO3)c1` (stereo not given), in “physchem”, the logD worked out at 3.33.
Regarding `O=c1oc2ccccc2n1C1CCOC2(CCN(Cc3ccccc3)CC2)C1` (stereo not given), in the data set “physchem”, the logD was found to be 2.42. Further, the fraction unbound – broadly, the share of the substance not bound to proteins or other matrix – in the data set “in vitro [1]” was 0.15. The fraction remaining (commonly the share of the starting amount still present when the sample was taken) at 1.5 h in the data set “in vitro [2]” came to 74%.
